Test results as given in BindingDB's records for doi:10.1021/np500757w (University of California San Diego, 2015).

Target: Endoplasmic reticulum chaperone BiP (Homo sapiens, UniProt P11021)
Test: Inhibition of 2-deoxyglucose-induced GRP78 (unknown origin) expression transfected in human HT1080 cells by luciferase reporter gene assay

Chain of Endoplasmic reticulum chaperone BiP (P11021 whole entry): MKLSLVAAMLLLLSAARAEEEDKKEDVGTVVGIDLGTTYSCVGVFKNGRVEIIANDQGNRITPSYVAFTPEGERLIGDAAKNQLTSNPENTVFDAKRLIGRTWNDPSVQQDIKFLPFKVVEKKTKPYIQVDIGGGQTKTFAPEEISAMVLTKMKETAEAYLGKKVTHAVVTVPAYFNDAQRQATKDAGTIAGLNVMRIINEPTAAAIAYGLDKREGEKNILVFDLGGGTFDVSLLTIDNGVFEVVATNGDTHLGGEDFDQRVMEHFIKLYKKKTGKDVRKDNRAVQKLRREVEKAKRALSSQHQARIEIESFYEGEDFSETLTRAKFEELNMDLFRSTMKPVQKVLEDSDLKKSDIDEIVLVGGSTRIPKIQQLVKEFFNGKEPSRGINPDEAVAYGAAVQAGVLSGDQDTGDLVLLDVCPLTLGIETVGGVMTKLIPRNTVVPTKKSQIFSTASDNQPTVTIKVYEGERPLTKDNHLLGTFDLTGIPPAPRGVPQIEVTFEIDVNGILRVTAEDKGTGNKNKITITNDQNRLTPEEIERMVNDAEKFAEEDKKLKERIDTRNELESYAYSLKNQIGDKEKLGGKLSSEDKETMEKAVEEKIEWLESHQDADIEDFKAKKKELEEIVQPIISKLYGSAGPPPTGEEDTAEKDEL

Which IC50 does the source give for `CC/C1=C/[C@H](CO)C[C@@H](C)[C@H](O[C@H]2C[C@H](O)[C@H](O[C@@H]3O[C@@H](C)[C@H](O[C@H]4C[C@H](O)[C@H](O)[C@@H](C)O4)[C@@H](OC)[C@H]3O)[C@@H](C)O2)[C@H](C)CCC[C@]2(C)C=C(C)[C@H](C)C[C@]23OC(=O)C(=C3O)C(=O)[C@@]2(CC)[C@H]3[C@H](C=C(C)[C@@H]12)[C@@H](O)CC(=O)[C@@H]3C` here?
Its IC50 is 0.3 µM.
